Assay results from US6864217B2, “Herbicidal compositions with substituted phenylsulfonylureas for controlling weeds in rice” (Hoechst Schering AgrEvo GmbH, priority 1998, dated 2005).
Where a name gives a salt, the structure may show the parent alone.

Experiments:
Oryza sativa [1] = assay: Table 5 field trial, treatment at the 2-4 leaf stage rice: rice damage; type: in vivo; settings: evaluation after 28 days
Experimental: (§3) The examples mentioned below were carried out in the greenhouse, and in some instances, in field trials.

Echinochloa crusgalli [2] = assay: Table 4 field trial: weed control; type: in vivo
Experimental: as §3

Echinochloa crusgalli [3] = assay: Table 18 field trial, treatment at the 1-2 leaf stage: weed control; type: in vivo; settings: 14 days after application
Excerpt: Field trial: Treatment at the 1-2 leaf stage, evaluation 14 days after the application.

Oryza sativa [4] = assay: Table 23 field trial, treatment: 4-6 leaf stage: rice damage; type: in vivo; settings: 36 days after application
Excerpt: Field trial: Treatment: 4-6 leaf stage, evaluation 36 days after the application.

Cyperus serotinus [5] = assay: Table 19 field trial, treatment at the 2 leaf stage: weed control; type: in vivo; settings: 14 days after application
Excerpt: (§1) Field trial: Treatment at the 2 leaf stage, evaluation 14 days after the application.

Echinochloa crusgalli [6] = assay: Table 9 greenhouse trial, treatment at the 1-2 leaf stage: weed control; type: in vivo; settings: 22 days after application
Experimental: (§2) Seeds or rhizome pieces of mono- and dicotyledonous weed plants are placed into sandy loam soil in plastic pots, covered with soil and grown in a greenhouse under good growth conditions (temperature, atmospheric humidity, water supply). Weeds which are encountered in the cultivation of rice are cultivated in pots in which the water level is up to 2 cm over the soil surface. Three weeks after sowing, the test plants are treated at the three-leaf stage. The active compound combinations according to the invention, formulated as wettable powders or emulsion concentrates, and, in parallel experiments, the correspondingly formulated individual active compounds are sprayed onto the green parts of the plants at different dosages using an amount of water of 300 to 600 l/ha (converted), and, after about 3 to 4 weeks of the test plants in the greenhouse under optimum growth conditions (temperature, atmospheric humidity, water supply), the effect of the preparations is evaluated visually in comparison to untreated controls. In the case of rice or weeds which are encountered in the cultivation of rice, the active compounds are also added directly to the water for irrigation (application analogous to the so-called granules application) or sprayed onto plants and added to the water for irrigation. The experiments were designed with several, up to five, repetitions. The herbicidal compositions according to the invention also have good herbicidal post-emergence activity against a broad spectrum of economically important weed grasses and broad-leaved weeds.
Greenhouse trial: Treatment at the 1-2 leaf stage, evaluation 22 days after the application.

Marsilea crenata = assay: Table 7 field trial, treatment at the 1-2 leaf stage: weed control; type: in vivo; settings: 2 g of ai/ha, 28 days after application
Experimental: as §3

Oryza sativa [7] = assay: Table 12 greenhouse trial, treatment at the 1-2 leaf stage: rice damage; type: in vivo; settings: in vivo
Experimental: as §2
Greenhouse trial: Treatment at the 1-2 leaf stage, evaluation 20 days after the application.

ECHCO = assay: Table 2 field trial, treatment at the 2-3 leaf stage weed grasses: weed control; type: in vivo, Echinochloa colona; settings: 28 days after application
Experimental: as §3

Cyperus serotinus [8] = assay: Table 16 greenhouse trial, treatment at the 2-3 leaf stage: weed control; type: in vivo; settings: 20 days after application
Experimental: as §2
Greenhouse trail: Treatment at the 2-3 leaf stage, evaluation 20 days after the application.

Oryza sativa [9] = assay: Table 7 field trial, treatment at the 1-2 leaf stage: rice damage; type: in vivo; settings: 2 g of ai/ha, 28 days after application
Experimental: as §3

Echinochloa crusgalli [10] = assay: Table 17 field trial, treatment at the 2 leaf stage: weed control; type: in vivo; settings: 14 days after application
Excerpt: as §1

Cyperus iria = assay: Table 24 field trial, treatment by the pre-emergence method: weed control; type: in vivo; settings: 53 days after application
Excerpt: Field trial: Treatment by the pre-emergence method, evaluation 53 days after the application.

**Q.** For `COC(=O)c1ccc(I)cc1S(=O)(=O)NC(=O)Nc1nc(C)nc(OC)n1` [A1*), Sodium salt of methyl 4-iodo-2-[3-(4-methoxy-6-methyl-1,3,5-triazin-2-yl)ureidosulfonyl]benzoate], which ORYSW % damage (Oryza sativa [1]; 1.25 g of ai/ha) is on record?
**A.** 0%

**Q.** And the ORYSW % damage (Oryza sativa [1]; 2.5 g of ai/ha)?
**A.** 0%

**Q.** And the ORYSW % damage (Oryza sativa [1]; 5 g of ai/ha)?
**A.** 1%

**Q.** What about the ECHCG % control (Echinochloa crusgalli [2]; 1.25 g of ai/ha) of the same compound?
**A.** 0%

**Q.** What about the ECHCG % control (Echinochloa crusgalli [2]; 2.5 g of ai/ha) of the same compound?
**A.** 0%

**Q.** What about the ECHCG % control (Echinochloa crusgalli [2]; 5 g of ai/ha) of the same compound?
**A.** 0%

**Q.** And the ECHCG % control (Echinochloa crusgalli [3]; 1 g of ai/ha)?
**A.** 5%

**Q.** What about the ECHCG % control (Echinochloa crusgalli [3]; 2 g of ai/ha) of the same compound?
**A.** 25%

**Q.** What about the ORYSW % damage (Oryza sativa [4]; 0.62 g of ai/ha) of the same compound?
**A.** 3%

**Q.** And the ORYSW % damage (Oryza sativa [4]; 1.25 g of ai/ha)?
**A.** 8%

**Q.** And the ORYSW % damage (Oryza sativa [4]; 2.5 g of ai/ha)?
**A.** 12%

**Q.** And the CYPSE % control (Cyperus serotinus [5]; 1.5 g of ai/ha)?
**A.** 10%

**Q.** And the CYPSE % control (Cyperus serotinus [5]; 3 g of ai/ha)?
**A.** 30%

**Q.** What about the ECHCG % control (Echinochloa crusgalli [6]; 1.5 g of ai/ha) of the same compound?
**A.** 40%

**Q.** And the ECHCG % control (Echinochloa crusgalli [6]; 3 g of ai/ha)?
**A.** 60%

**Q.** And the MASCR % control (Marsilea crenata)?
**A.** 33%

**Q.** What about the ORYSW % damage (Oryza sativa [7]) of the same compound?
**A.** 10%

**Q.** What about the ECHCO % control (ECHCO; 1.25 g of ai/ha) of the same compound?
**A.** 0%

**Q.** And the ECHCO % control (ECHCO; 2.5 g of ai/ha)?
**A.** 35%

**Q.** What about the ECHCO % control (ECHCO; 5 g of ai/ha) of the same compound?
**A.** 37%

**Q.** And the CYPSE % control (Cyperus serotinus [8]; 1.25 g of ai/ha)?
**A.** 10%

**Q.** And the CYPSE % control (Cyperus serotinus [8]; 2.5 g of ai/ha)?
**A.** 30%

**Q.** What about the CYPSE % control (Cyperus serotinus [8]; 5 g of ai/ha) of the same compound?
**A.** 50%

**Q.** What about the ORYSW % damage (Oryza sativa [9]) of the same compound?
**A.** 0%

**Q.** And the ECHCG % control (Echinochloa crusgalli [10]; 1 g of ai/ha)?
**A.** 5%

**Q.** What about the ECHCG % control (Echinochloa crusgalli [10]; 2 g of ai/ha) of the same compound?
**A.** 25%

**Q.** And the ECHCG % control (Echinochloa crusgalli [10]; 4 g of ai/ha)?
**A.** 45%

**Q.** And the CYPIR % control (Cyperus iria; 2.5 g of ai/ha)?
**A.** 17%

**Q.** What about the CYPIR % control (Cyperus iria; 5 g of ai/ha) of the same compound?
**A.** 27%
